The assay concerns the target T1, human TAS1R2-WT/TAS1R3-P780A (Homo sapiens, UniProt Q7RTX0+Q8TE23, P780A).
T1 construct: expressed in transfected cells; host or cells: HEK293T stably expressing Gα16gust44
T1 sequence (Q8TE23 20-839): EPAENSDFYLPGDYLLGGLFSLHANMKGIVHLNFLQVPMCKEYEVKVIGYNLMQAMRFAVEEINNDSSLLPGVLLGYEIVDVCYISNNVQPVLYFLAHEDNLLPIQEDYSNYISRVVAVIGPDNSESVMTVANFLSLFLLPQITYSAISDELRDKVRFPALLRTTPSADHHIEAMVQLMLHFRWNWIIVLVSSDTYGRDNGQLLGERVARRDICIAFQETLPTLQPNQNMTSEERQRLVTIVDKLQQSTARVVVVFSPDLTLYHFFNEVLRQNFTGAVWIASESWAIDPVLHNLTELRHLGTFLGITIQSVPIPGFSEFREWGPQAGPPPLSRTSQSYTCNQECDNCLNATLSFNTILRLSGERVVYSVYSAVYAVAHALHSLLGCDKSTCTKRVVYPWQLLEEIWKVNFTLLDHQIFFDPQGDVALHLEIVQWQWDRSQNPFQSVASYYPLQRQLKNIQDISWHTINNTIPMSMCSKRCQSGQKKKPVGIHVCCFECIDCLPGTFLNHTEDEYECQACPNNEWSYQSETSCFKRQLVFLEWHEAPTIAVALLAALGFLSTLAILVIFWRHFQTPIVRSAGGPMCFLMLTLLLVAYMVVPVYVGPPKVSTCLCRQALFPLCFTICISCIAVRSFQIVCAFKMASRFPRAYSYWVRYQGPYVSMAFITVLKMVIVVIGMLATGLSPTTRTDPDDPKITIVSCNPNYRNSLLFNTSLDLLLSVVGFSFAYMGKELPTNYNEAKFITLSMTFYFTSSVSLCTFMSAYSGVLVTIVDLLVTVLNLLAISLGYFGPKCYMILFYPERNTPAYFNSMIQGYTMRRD
T1 sequence (Q7RTX0 21-852 P780A): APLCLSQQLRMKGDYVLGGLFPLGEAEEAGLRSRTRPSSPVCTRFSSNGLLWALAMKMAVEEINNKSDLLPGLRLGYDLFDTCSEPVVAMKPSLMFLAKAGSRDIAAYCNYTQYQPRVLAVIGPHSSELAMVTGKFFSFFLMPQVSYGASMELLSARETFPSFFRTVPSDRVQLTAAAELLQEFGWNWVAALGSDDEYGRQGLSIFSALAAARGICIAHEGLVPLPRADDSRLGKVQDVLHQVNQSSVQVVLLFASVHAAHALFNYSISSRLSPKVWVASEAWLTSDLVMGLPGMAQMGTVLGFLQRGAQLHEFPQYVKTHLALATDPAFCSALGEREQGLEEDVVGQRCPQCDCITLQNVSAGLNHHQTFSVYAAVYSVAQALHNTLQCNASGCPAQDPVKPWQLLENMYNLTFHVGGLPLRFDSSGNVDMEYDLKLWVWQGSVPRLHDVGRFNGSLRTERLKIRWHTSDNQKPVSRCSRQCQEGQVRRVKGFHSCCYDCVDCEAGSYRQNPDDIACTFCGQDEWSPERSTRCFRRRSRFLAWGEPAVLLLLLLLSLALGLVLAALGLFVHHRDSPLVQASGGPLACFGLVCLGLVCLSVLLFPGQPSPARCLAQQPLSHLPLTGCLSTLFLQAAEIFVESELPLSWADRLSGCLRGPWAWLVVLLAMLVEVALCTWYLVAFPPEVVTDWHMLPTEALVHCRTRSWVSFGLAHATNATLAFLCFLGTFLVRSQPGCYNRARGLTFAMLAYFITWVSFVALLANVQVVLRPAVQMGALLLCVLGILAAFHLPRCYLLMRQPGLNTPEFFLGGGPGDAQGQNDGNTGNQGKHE
Nature of the assay: Calcium mobilisation assay, TAS1R2-WT with TAS1R3 variant P780A. The following applies: for Max ΔF/F0: maximal signal amplitude. It counts as cell-based. An excerpt: The coding sequences for TAS1R2 and TAS1R3 were commercially synthesised, and the human codon was optimised for expression in human cells. The coding sequences of human TAS1R2 and TAS1R3 were subcloned and inserted into the mammalian expression vectors pcDNA6/myc-HisA and pcDNA4/myc-HisA (Invitrogen; Thermo Fisher Scientific; Illkirch, France) between the EcoRI and NotI restriction sites, generating the plasmids pcDNA6-TAS1R2 and pcDNA4-TAS1R3, respectively. To increase protein expression in mammalian cells, an upstream start codon was used, which was a sequence called MAX, corresponding to the QBI SP163 element also described in pcDNA4-HisMax (Invitrogen; Thermo Fisher Scientific; Illkirch, France). To measure the expression level of the receptor by immunohistochemistry, we used the FLAG sequence ([…]) in the C-terminal position, which encodes the FLAG tag epitope. SNP variants of TAS1R2 and TAS1R3 were constructed based on […], respectively, using site-directed mutagenesis (Genewiz; Leipzig, Germany).
The HEK293T cells were kindly provided by Jay P. Slack (Givaudan Flavors Corporation; Cincinnati, OH, USA). HEK293T cells stably transfected with Gα16gust44 [43, 67] were seeded in poly-D-lysine-coated clear-bottom black 96-well plates (0.35 × 10^5 cells/well) in high-glucose DMEM supplemented with 2 mM GlutaMAX, 10% dialysed foetal bovine serum with penicillin/streptomycin and G418 (400 μg/mL) at 37 °C and 6.3% CO2 in a humidified atmosphere as previously reported. […] As a negative control, HEK293T cells were mock-transfected with the empty expression vector. After a further 24 h of incubation, the HEK293T cells were washed with C1 buffer (130 mM NaCl, 5 mM KCl, 10 mM HEPES pH 7.4 and 2 mM CaCl2). The 96-well plates containing the cells were then stimulated with sweet-tasting compounds. […] Different concentration ranges were tested depending on the sweet compound injected. The Ca^2+ changes were expressed as fractional changes in fluorescent light intensity: ΔF/F = (F − F0)/F0, where F was the fluorescent light intensity at each point, and F0 was the value of emitted fluorescent light prior to stimulus application. To calculate dose–response relationships, the changes in fluorescence upon stimulus application were averaged, mock-subtracted and baseline-corrected. The dose–response data obtained were adjusted using a 4-parameter logistic equation. The half-maximal effective concentrations (EC50 values) and maximal signal amplitudes were calculated using SigmaPlot software (version 15.0) (Systat Software; San Jose, CA, USA).
For in vitro calcium mobilisation assay performed on hTAS1R2-SNPs, hTAS1R3-SNPs and mTAS1R3-I60T, 6 to 7 concentrations were tested for each sweet compound, plus buffer alone. All concentration–receptor combinations were measured in duplicate, and each experiment was repeated at least 4 times (8 wells/concentration). Results were expressed for each concentration as ΔF/F mean ± SEM and represented as dose–response curves.
For orientation: A change in cytosolic calcium serves as a functional read-out for many receptors and channels.

Where two headings read alike, the source gives them in different places. No end group written: not given here.

For `C=C(C)[C@@H]1CC=C(/C=N/O)CC1` [Perillartine, perillartine], the “R1 = Variant EC50/WT EC50” value turned out to be 0.9 and the “Max ΔF/F0” value is given as 1.44 ± 0.20. In addition, the 50% effective concentration (EC50) (in general, the concentration that produces a half-maximal response) (read-out: EC50) is 12.7 ± 5 µM.

Take `O=S(=O)(O)NC1CCCCC1` [Cyclamate, cyclamate]: the EC50 (read-out: EC50) was found to be 1170 ± 62 µM.

Regarding `C=C1C[C@@]23CC[C@H]4[C@@](C)(CCC[C@@]4(C)C(=O)O[C@@H]4O[C@H](CO)[C@@H](O)[C@H](O[C@@H]5O[C@H](CO)[C@@H](O)[C@H](O)[C@H]5O)[C@H]4O[C@@H]4O[C@H](CO)[C@@H](O)[C@H](O)[C@H]4O)[C@@H]2CC[C@]1(O[C@@H]1O[C@H](CO)[C@@H](O)[C@H](O[C@@H]2O[C@H](CO)[C@@H](O)[C@H](O)[C@H]2O)[C@H]1O[C@@H]1O[C@H](CO)[C@@H](O)[C@H](O)[C@H]1O)C3` [Rebaudioside M, rebaudioside M], the “R1 = Variant EC50/WT EC50” value is listed as 0.6 and the “Max ΔF/F0” value stood at 1.21 ± 0.05. Also, the EC50 (read-out: EC50) stood at 23 ± 2.6 µM.

As for `OC[C@H]1O[C@H](O[C@]2(CCl)O[C@H](CCl)[C@@H](O)[C@@H]2O)[C@H](O)[C@@H](O)[C@H]1Cl` [Sucralose], the “R1 = Variant EC50/WT EC50” value came out at 1.4 and the “Max ΔF/F0” value was 0.76 ± 0.03. Besides, the 50% effective concentration (EC50) (read-out: EC50) stood at 149 ± 12 µM.

Turning to `CC1=CC(=O)NS(=O)(=O)O1` [Acesulfame K, acesulfame K], the “R1 = Variant EC50/WT EC50” value was determined as 0.7 and the “Max ΔF/F0” value amounted to 0.30 ± 0.01. In addition, the concentration giving a half-maximal response (EC50) (read-out: EC50) turned out to be 421 ± 31 µM.

For “brazzein (QDKCKKVYENYPVSKCQLANQCNYDCKLDKHARSGECFYDEKRNLQCICDYCEY; ends and bridges not checked; cysteine pairing not given here; UniProt P56552 1-54, looked up) [sweet-tasting protein obtained by recombinant production using the yeast Pichia pastoris]”, the “R1 = Variant EC50/WT EC50” value is 0.7 and the “Max ΔF/F0” value is reported as 1.06 ± 0.06. In addition, where the note is “brazzein”, the EC50 is 80.7 ± 14.8 µg/mL.

For the molecule thaumatin, the “R1 = Variant EC50/WT EC50” value is 0.8 and the “Max ΔF/F0” value is listed as 0.86 ± 0.06.

On to `COC(=O)[C@H](Cc1ccccc1)NC(=O)[C@H](CC(=O)O)NCCC(C)(C)C` [Neotame], for which the “R1 = Variant EC50/WT EC50” value amounted to 0.8 and the “Max ΔF/F0” value is listed as 0.63 ± 0.02. For the setting “read-out: EC50”, the EC50 stood at 1.03 ± 0.08 µM.

Regarding `C[C@H](CC[C@@H](O[C@@H]1O[C@H](CO[C@@H]2O[C@H](CO)[C@@H](O)[C@H](O)[C@H]2O)[C@@H](O)[C@H](O)[C@H]1O[C@@H]1O[C@H](CO)[C@@H](O)[C@H](O)[C@H]1O)C(C)(C)O)[C@H]1CC[C@@]2(C)[C@@H]3CC=C4[C@@H](CC[C@H](O[C@@H]5O[C@H](CO[C@@H]6O[C@H](CO)[C@@H](O)[C@H](O)[C@H]6O)[C@@H](O)[C@H](O)[C@H]5O)C4(C)C)[C@]3(C)[C@H](O)C[C@]12C` [Mogroside V, mogroside V], the “R1 = Variant EC50/WT EC50” value is 0.7 and the “Max ΔF/F0” value stood at 1.13 ± 0.04. Besides, where the note is “read-out: EC50”, the EC50 turned out to be 22.5 ± 2.2 µM.

As to `COc1ccc(CCC(=O)c2c(O)cc(O[C@@H]3O[C@H](CO)[C@@H](O)[C@H](O)[C@H]3O[C@@H]3O[C@@H](C)[C@H](O)[C@@H](O)[C@H]3O)cc2O)cc1O` [NHDC, neohesperidin dihydrochalcone], the “R1 = Variant EC50/WT EC50” value is reported as 0.9 and the “Max ΔF/F0” value amounted to 1.50 ± 0.01. Besides, for the setting “read-out: EC50”, the EC50 stood at 46.4 ± 12.9 µM.

B1: thaumatin (protein)
chain: ATFEIVNRCSYTVWAAASKGDAALDAGGRQLNSGESWTINVEPGTKGGKIWARTDCYFDDSGSGICKTGDCGGLLRCKRFGRPPTTLAEFSLNQYGKDYIDISNIKGFNVPMDFSPTTRGCRGVRCAADIVGQCPAKLKAPGGGCNDACTVFQTSEYCCTTGKCGPTEYSRFFKRLCPDAFSYVLDKPTTVTCPGSSNYRVTFCPTA
modifications: Eight disulfides
notes: sweet-tasting plant protein, E957
As to B1, the half-maximal effective concentration (EC50) (read-out: EC50) was 7.8 ± 1.3 µM.

The record behind these values is paper PMC11945486, “TAS1R2/TAS1R3 Single-Nucleotide Polymorphisms Affect Sweet Taste Receptor Activation by Sweeteners: The SWEET Project” (Nutrients, 2025).
